Source: ChEMBL document CHEMBL6092180 (Eur J Med Chem, 2024)
Converted amounts (≈) assume the structure as drawn. The source made the active and inactive calls. The rule behind the calls is not given here.

Key:
Nakaseomyces glabratus = assay: Antifungal activity against Candida glabrata assessed as inhibition of fungal growth by CLSI M27-A3 guidelines based method; type: functional
[1] = Metabolic stability in human liver microsomes assessed as parent compound remaining preincubated for 10 mins followed by NADPH addition and measured after 60 mins by LC-MS/MS analysis; type: ADME, Microsome; settings: time 70 min, read-out: Stability
Candida parapsilosis = assay: Antifungal activity against Candida parapsilosis GIM 2.190 assessed as inhibition of fungal growth by CLSI M27-A3 guidelines based method; type: functional; settings: Lodderomyces parapsilosis
Pichia kudriavzevii = assay: Antifungal activity against Candida krusei GIM 2.1 assessed as inhibition of fungal growth by CLSI M27-A3 guidelines based method; type: functional
[2] = Metabolic stability in human liver microsomes assessed as half-life preincubated for 10 mins followed by NADPH addition and measured after 60 mins by LC-MS/MS analysis; type: ADME, Microsome; settings: time 70 min
Candida albicans [3] = assay: Antifungal activity against Candida albicans SC5314 assessed as inhibition of fungal growth by CLSI M27-A3 guidelines based method; type: functional
Candida tropicalis = assay: Antifungal activity against Candida tropicalis GIM 2.183 assessed as inhibition of fungal growth by CLSI M27-A3 guidelines based method; type: functional
Cryptococcus neoformans = assay: Antifungal activity against Cryptococcus neoformans CGMCC 2.3161 assessed as inhibition of fungal growth by CLSI M27-A3 guidelines based method; type: functional
Candida albicans [4] = assay: Antifungal activity against Candida albicans GIM 2.194 assessed as inhibition of fungal growth by CLSI M27-A3 guidelines based method; type: functional
Candida albicans [5] = assay: Antifungal activity against fluconazole-resistant Candida albicans CaR assessed as inhibition of fungal growth by CLSI M27-A3 guidelines based method; type: functional
Candida albicans [6] = assay: Effect on sterol composition in Candida albicans SC5314 assessed as obtusifoliol content at 0.05 microg/ml measured after 16 hrs by GC-MS analysis relative to control; type: functional; settings: dose 0.05 µg/ml
Candida albicans [7] = assay: Effect on sterol composition in Candida albicans SC5314 assessed as lanosterol content at 0.05 microg/ml measured after 16 hrs by GC-MS analysis relative to control; type: functional; settings: dose 0.05 µg/ml
[8] = Cmax in Sprague-Dawley rat at 10 mg/kg, po by LC-MS/MS analysis; type: ADME, organism-based; settings: in vivo
Candida albicans [9] = assay: Antibiofilm activity against fluconazole-resistant Candida albicans CPCC400616 assessed as inhibition of metabolic activity of biofilm measured after 24 hrs by XTT reduction assay; type: functional
[10] = Oral bioavailability in Sprague-Dawley rat at 10 mg/kg by LC-MS/MS analysis; type: ADME, organism-based; settings: in vivo
Candida albicans [11] = assay: Fungicidal activity against fluconazole and iodiconazole resistant Candida albicans clinical isolate 17# incubated for 48 hrs by PDA plate based method; type: functional
Candida albicans [12] = assay: Antifungal activity against fluconazole and iodiconazole resistant Candida albicans clinical isolate 17# assessed as inhibition of fungal growth by CLSI M27-A3 guidelines based method; type: functional
Aspergillus fumigatus = assay: Antifungal activity against Aspergillus fumigatus cgmcc 3.7795 assessed as inhibition of fungal growth by CLSI M27-A3 guidelines based method; type: functional
Candida albicans [13] = assay: Antibiofilm activity against fluconazole-resistant Candida albicans CPCC400616 assessed as inhibition of metabolic activity of biofilm measured after 6 hrs by XTT reduction assay; type: functional
[14] = Half-life in Sprague-Dawley rat at 10 mg/kg, po by LC-MS/MS analysis; type: ADME, organism-based; settings: in vivo
Candida albicans [15] = assay: Fungicidal activity against Candida albicans SC5314 incubated for 48 hrs by PDA plate based method; type: functional
[16] = Cytotoxicity against HUVEC cells assessed as inhibition of cell growth incubated for 72 hrs by MTT assay; type: toxicity, cell-based; settings: human
[17] = Half-life in Sprague-Dawley rat at 3 mg/kg, iv by LC-MS/MS analysis; type: ADME, organism-based; settings: in vivo
Candida albicans [18] = assay: Effect on sterol composition in Candida albicans SC5314 assessed as other sterols content at 0.05 microg/ml measured after 16 hrs by GC-MS analysis (reference value: 1.06 %); type: functional; settings: dose 0.05 µg/ml
Candida albicans [19] = assay: Antifungal activity against fluconazole-resistant Candida albicans clinical isolate 904 assessed as inhibition of fungal growth by CLSI M27-A3 guidelines based method; type: functional
Candida albicans [20] = assay: Antifungal activity against fluconazole-resistant Candida albicans clinical isolate 901 assessed as inhibition of fungal growth by CLSI M27-A3 guidelines based method; type: functional
[21] = Tmax in Sprague-Dawley rat at 3 mg/kg, iv by LC-MS/MS analysis; type: ADME, organism-based; settings: in vivo
[22] = Cytotoxicity against human NCI-H460 cells assessed as inhibition of cell growth incubated for 72 hrs by MTT assay; type: toxicity, cell-based
[23] = MRT(0 to t) in Sprague-Dawley rat at 3 mg/kg, iv by LC-MS/MS analysis; type: ADME, organism-based; settings: in vivo
Candida albicans [24] = assay: Antifungal activity against fluconazole-resistant Candida albicans clinical isolate 632 assessed as inhibition of fungal growth by CLSI M27-A3 guidelines based method; type: functional
Candida albicans [25] = assay: Effect on sterol composition in Candida albicans SC5314 assessed as eburicol content at 0.05 microg/ml measured after 16 hrs by GC-MS analysis relative to control; type: functional; settings: dose 0.05 µg/ml
[26] = Apparent volume of distribution in Sprague-Dawley rat at 3 mg/kg, iv by LC-MS/MS analysis; type: ADME, organism-based; settings: in vivo, read-out: Vz
[27] = Cytotoxicity against HEK293T cells assessed as inhibition of cell growth incubated for 72 hrs by MTT assay; type: toxicity, cell-based, HEK-293T; settings: human
Candida albicans [28] = assay: Inhibition of hyphal formation in fluconazole-resistant Candida albicans CPCC400616 assessed as reduction in invasive ability at 2 microg/ml measured after 4 hrs by inverted microscopic analysis; type: functional, organism-based; settings: dose 2.0 µg/ml
[29] = AUC (0 to infinity) in Sprague-Dawley rat at 3 mg/kg, iv by LC-MS/MS analysis; type: ADME, organism-based; settings: in vivo
[30] = Tmax in Sprague-Dawley rat at 10 mg/kg, po by LC-MS/MS analysis; type: ADME, organism-based; settings: in vivo
[31] = Clearance in Sprague-Dawley rat at 3 mg/kg, iv by LC-MS/MS analysis; type: ADME, organism-based; settings: in vivo
Candida albicans [32] = assay: Fungicidal activity fluconazole and iodiconazole resistant Candida albicans clinical isolate 17# assessed as decrease in number of fungi at 1 times of MIC measured within 24 hrs by time-kill kinetics assay; type: functional, organism-based
Candida albicans [33] = assay: Antifungal activity against fluconazole-resistant Candida albicans clinical isolate 103 assessed as inhibition of fungal growth by CLSI M27-A3 guidelines based method; type: functional
Candida albicans [34] = assay: Antifungal activity against fluconazole-resistant Candida albicans clinical isolate 100 assessed as inhibition of fungal growth by CLSI M27-A3 guidelines based method; type: functional
Candida albicans [35] = assay: Fungicidal activity fluconazole and iodiconazole resistant Candida albicans clinical isolate 17# assessed as decrease in number of fungi at 2 times of MIC measured within 24 hrs by time-kill kinetics assay; type: functional, organism-based
Candida albicans [36] = assay: Effect on sterol composition in Candida albicans SC5314 assessed as 14alpha-demethyllanosterol content at 0.05 microg/ml measured after 16 hrs by GC-MS analysis (reference value: […] %); type: functional; settings: dose 0.05 µg/ml
[37] = AUC (0 to infinity) in Sprague-Dawley rat at 10 mg/kg, po by LC-MS/MS analysis; type: ADME, organism-based; settings: in vivo
Candida albicans [38] = assay: Antifungal activity against fluconazole-resistant Candida albicans clinical isolate 311 assessed as inhibition of fungal growth by CLSI M27-A3 guidelines based method; type: functional
Candida albicans [39] = assay: Effect on sterol composition in Candida albicans SC5314 assessed as ergosterol content at 0.05 microg/ml measured after 16 hrs by GC-MS analysis (reference value: 96.96 %); type: functional; settings: dose 0.05 µg/ml
[40] = Cytotoxicity against human OVCAR-3 cells assessed as inhibition of cell growth incubated for 72 hrs by MTT assay; type: toxicity, cell-based
Candida albicans [41] = assay: Fungicidal activity fluconazole and iodiconazole resistant Candida albicans clinical isolate 17# assessed as decrease in number of fungi at 4 times of MIC measured within 24 hrs by time-kill kinetics assay; type: functional, organism-based
[42] = Cmax in Sprague-Dawley rat at 3 mg/kg, iv by LC-MS/MS analysis; type: ADME, organism-based; settings: in vivo

## CN(Cc1ccc(C#Cc2ccccc2)cc1)CC(O)(Cn1cncn1)c1ccc(F)cc1F (stereo unspecified)
Nakaseomyces glabratus
  MIC80: 0.1 µg/mL (≈ 0.218 µM)
[1]
  remaining at 1 h: 0.936%
Candida parapsilosis
  MIC80: 0.013 µg/mL (≈ 0.0284 µM)
Pichia kudriavzevii
  MIC80: 0.05 µg/mL (≈ 0.109 µM)
[2]
  half-life: 0.0732 h
Candida albicans [3]
  MIC80: 0.013 µg/mL (≈ 0.0284 µM)
Candida tropicalis
  MIC80: 0.013 µg/mL (≈ 0.0284 µM)
Cryptococcus neoformans
  MIC80: 0.025 µg/mL (≈ 0.0545 µM)
Candida albicans [4]
  MIC80: 0.013 µg/mL (≈ 0.0284 µM)

## CN(Cc1ccc(C#Cc2ccc(F)cc2F)cc1)CC(O)(Cn1cncn1)c1ccc(F)cc1F (stereo unspecified)
Nakaseomyces glabratus
  MIC80: 0.01 µg/mL (≈ 0.0202 µM)
[1]
  remaining at 1 h: 20.9%
Candida parapsilosis
  MIC80: 0.006 µg/mL (≈ 0.0121 µM)
Pichia kudriavzevii
  MIC80: 0.01 µg/mL (≈ 0.0202 µM)
[2]
  half-life: 0.438 h
Candida albicans [3]
  MIC80: 0.006 µg/mL (≈ 0.0121 µM)
Candida tropicalis
  MIC80: 0.006 µg/mL (≈ 0.0121 µM)
Cryptococcus neoformans
  MIC80: 0.013 µg/mL (≈ 0.0263 µM)
Candida albicans [4]
  MIC80: 0.006 µg/mL (≈ 0.0121 µM)

## C[C@@H](N(C)Cc1ccc(C#Cc2ccc(F)cc2F)cc1)[C@](O)(Cn1cncn1)c1ccc(F)cc1F
Candida albicans [5]
  MIC80: 0.25 µg/mL (≈ 0.492 µM)
Candida albicans [6]
  Activity: 13.69%
Nakaseomyces glabratus
  MIC80: 0.01 µg/mL (≈ 0.0197 µM)
Candida albicans [7]
  Activity: 9.97%
[1]
  remaining at 1 h: 25.9%
[8]
  Cmax: 283 ng/mL
Candida albicans [9]
  MIC50: 4 µg/mL (≈ 7.87 µM)
[10]
  bioavailability: 26.3%
Candida parapsilosis
  MIC80: 0.006 µg/mL (≈ 0.0118 µM)
Candida albicans [11]
  MFC: 1 µg/mL (≈ 1.97 µM)
Candida albicans [12]
  MIC80: 0.25 µg/mL (≈ 0.492 µM)
Aspergillus fumigatus
  MIC80: 0.05 µg/mL (≈ 0.0983 µM)
Candida albicans [13]
  MIC50: 0.5 µg/mL (≈ 0.983 µM)
[14]
  half-life: 4.08 h
Candida albicans [15]
  MFC: 0.125 µg/mL (≈ 0.246 µM)
[16]
  IC50 at 72 h: > 10 µM
Pichia kudriavzevii
  MIC80: 0.01 µg/mL (≈ 0.0197 µM)
[17]
  half-life: 6.57 h
Candida albicans [18]
  Activity: 3.13%
Candida albicans [19]
  MIC80: 8 µg/mL (≈ 15.7 µM)
Candida albicans [20]
  MIC80: 4 µg/mL (≈ 7.87 µM)
[21]
  Tmax: 4.98 min
[22]
  IC50 at 72 h: > 10 µM
[23]
  MRT last: 1.92 h
[2]
  half-life: 0.503 h
Candida albicans [3]
  MIC80: 0.006 µg/mL (≈ 0.0118 µM)
Candida albicans [24]
  MIC80: 4 µg/mL (≈ 7.87 µM)
Candida albicans [25]
  Activity: 70.13%
[26]
  Vd: 15.7 L/kg
[27]
  IC50 at 72 h: > 10 µM
Candida albicans [28]
  inhibition: Active; Blockade Of Morphological Transformation Observed
[29]
  AUC(0-inf): 1830 ng·h/mL
[30]
  Tmax: 2.33 h
[31]
  clearance: 27.5 mL/min/kg
Candida albicans [32]
  Activity: Active
Candida albicans [33]
  MIC80: 4 µg/mL (≈ 7.87 µM)
Candida tropicalis
  MIC80: 0.006 µg/mL (≈ 0.0118 µM)
Candida albicans [34]
  MIC80: 4 µg/mL (≈ 7.87 µM)
Candida albicans [35]
  Activity: Active
Cryptococcus neoformans
  MIC80: 0.013 µg/mL (≈ 0.0256 µM)
Candida albicans [36]
  Activity: 2.79%
Candida albicans [4]
  MIC80: 0.006 µg/mL (≈ 0.0118 µM)
[37]
  AUC(0-inf): 1600 ng·h/mL
Candida albicans [38]
  MIC80: 8 µg/mL (≈ 15.7 µM)
Candida albicans [39]
  Activity: 0.29%
[40]
  IC50 at 72 h: > 10 µM
Candida albicans [41]
  Activity: Active; Effectively Kills Fungal Cells In Viable Colony Counts
[42]
  Cmax: 2460 ng/mL
